Experimental data from patent publication US12492181B2, “Gem-disubstituted piperidine melanocortin subtype-2 receptor (MC2R) antagonists and uses thereof” (Crinetics Pharmaceuticals, Inc., priority 2019, dated 2025).

Target: T1, hMC2 receptor (crude hMC2R membranes from CRE-bla-CHO-K1 cells stably expressing hMC2 receptor and hMRAP accessory protein) (Homo sapiens, UniProt Q01718)
T1 construct: crude membrane fractions
Assay: hMC2 membrane binding assay ([125I]ACTH (1-39) Tyr23, SPA)
Conditions: displacement of 0.2 nM [125I]ACTH (1-39) Tyr23 from hMC2R membranes, 1.5 hours at room temperature; read-out: MC2R binding potency
Summary of the method: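 Ki values come from non-linear regression of SPA scintillation counts, with compounds displacing [125I]ACTH(1-39) Tyr23. Membranes come from CRE-bla-CHO-K1 cells stably expressing hMC2 receptor together with hMRAP. They are preincubated with WGA-coated PVT SPA beads in 50 mM HEPES pH 7.4 with 0.20% BSA, Mg2+, Ca2+ and protease inhibitors.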

T1 sequence (Q01718 whole entry): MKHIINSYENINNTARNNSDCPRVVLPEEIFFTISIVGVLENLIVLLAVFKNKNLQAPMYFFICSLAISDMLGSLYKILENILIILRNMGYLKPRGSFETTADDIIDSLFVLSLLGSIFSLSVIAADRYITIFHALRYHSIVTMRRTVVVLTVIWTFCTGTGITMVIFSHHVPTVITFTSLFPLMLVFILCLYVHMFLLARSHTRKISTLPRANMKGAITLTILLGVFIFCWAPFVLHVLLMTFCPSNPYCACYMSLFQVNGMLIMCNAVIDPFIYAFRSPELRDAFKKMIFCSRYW
T1 sequence (Q8TCY5 whole entry partner): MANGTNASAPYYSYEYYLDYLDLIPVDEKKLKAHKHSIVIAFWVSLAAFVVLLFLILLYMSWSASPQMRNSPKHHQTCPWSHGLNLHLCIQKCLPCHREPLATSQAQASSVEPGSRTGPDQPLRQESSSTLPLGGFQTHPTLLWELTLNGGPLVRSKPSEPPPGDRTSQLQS

Compound | Ki
COc1ccccc1-c1ccc(C2(NC(=O)NC3CN(C)C3)CCN(c3ccc(C(F)(F)F)cc3C#N)CC2)cn1 [Compound 2-59, 1-{1-[2-cyano-4-(trifluoromethyl)phenyl]-4-[6-(2-methoxyphenyl)pyridin-3-yl]piperidin-4-yl}-3-(1-methylazetidin-3-yl)urea] | 10 to 100 nM
CNCCNC(=O)C1(c2ccc(-c3cccn3C)nc2)CCN(c2ccc(C(F)(F)F)cc2C#N)CC1 [Compound 1-215, 1-[2-cyano-4-(trifluoromethyl)phenyl]-4-[6-(1-methyl-1H-pyrrol-2-yl)pyridin-3-yl]-N-[2-(methylamino)ethyl]piperidine-4-carboxamide] | < 10 nM
CCOc1ncccc1-c1ccc(C2(NC(=O)N3CC[C@H](NC)C3)CCN(c3ccc(C(F)(F)F)cc3C#N)CC2)cn1 [Compound 2-24, (3S)—N-{1-[2-cyano-4-(trifluoromethyl)phenyl]-4-{2′-ethoxy-[2,3′-bipyridin]-5-yl}piperidin-4-yl}-3-(methylamino)pyrrolidine-1-carboxamide] | < 10 nM
CCOc1ncccc1-c1ccc(C2(C(=O)NCCN)CCN(c3ccc(C(F)(F)F)cc3C#N)CC2)cc1 [Compound 1-3, N-(2-aminoethyl)-1-[2-cyano-4-(trifluoromethyl)phenyl]-4-[4-(2-ethoxypyridin-3-yl)phenyl]piperidine-4-carboxamide] | 10 to 100 nM
CN1CC[C@@H](NC(=O)C2(c3ccc(-c4cccc(F)c4)nc3)CCN(c3ccc(C(F)(F)F)cc3C#N)CC2)C1 [Compound 1-64, 1-[2-cyano-4-(trifluoromethyl)phenyl]-4-[6-(3-fluorophenyl)pyridin-3-yl]-N-[(3R)-1-methylpyrrolidin-3-yl]piperidine-4-carboxamide] | < 10 nM
CCOc1ncccc1-c1ccc(C2(OC(=O)NCCN(C)C)CCN(c3ccc(C(F)(F)F)cc3C#N)CC2)cc1 [Compound 2-2, 1-[2-cyano-4-(trifluoromethyl)phenyl]-4-[4-(2-ethoxypyridin-3-yl)phenyl]piperidin-4-yl N-[2-(dimethylamino)ethyl]carbamate] | 10 to 100 nM
CCOc1ncccc1-c1ccc(C2(C(=O)N[C@@H](C)CNC)CCN(c3ccc(Cl)cc3Cl)CC2)cn1 [Compound 1-322, 1-(2,4-dichlorophenyl)-4-{2′-ethoxy-[2,3′-bipyridin]-5-yl}-N-[(2S)-1-(methylamino)propan-2-yl]piperidine-4-carboxamide] | < 10 nM
CCOc1ncccc1-c1ncc(C2(C(=O)NCCN(C)C)CCN(c3ccc(C(F)(F)F)cc3F)CC2)cc1F [Compound 1-284, N-[2-(dimethylamino)ethyl]-4-{2′-ethoxy-3-fluoro-[2,3′-bipyridin]-5-yl}-1-[2-fluoro-4-(trifluoromethyl)phenyl]piperidine-4-carboxamide] | < 10 nM
Cn1cccc1-c1ccc(C2(C(=O)NCCN3CCC3)CCN(c3ccc(C(F)(F)F)cc3C#N)CC2)cn1 [Compound 1-248, N-[2-(azetidin-1-yl)ethyl]-1-[2-cyano-4-(trifluoromethyl)phenyl]-4-[6-(1-methyl-1H-pyrrol-2-yl)pyridin-3-yl]piperidine-4-carboxamide] | < 10 nM
CN1CC[C@H](NC(=O)C2(c3ccc(-c4ncoc4C4CC4)nc3)CCN(c3ccc(C(F)(F)F)cc3C#N)CC2)C1 [Compound 1-182, 1-[2-cyano-4-(trifluoromethyl)phenyl]-4-[6-(5-cyclopropyl-1,3-oxazol-4-yl)pyridin-3-yl]-N-[(3S)-1-methylpyrrolidin-3-yl]piperidine-4-carboxamide] | 10 to 100 nM
CCOc1ncccc1-c1ncc(C2(C(=O)N[C@@H](C)CN(C)C)CCN(c3ccc(C(F)(F)F)cc3C#N)CC2)cc1F [Compound 1-319, 1-[2-cyano-4-(trifluoromethyl)phenyl]-N-[(2S)-1-(dimethylamino)propan-2-yl]-4-{2′-ethoxy-3-fluoro-[2,3′-bipyridin]-5-yl}piperidine-4-carboxamide] | < 10 nM
CN1CCC[C@H]1CNC(=O)C1(c2ccc(-c3cccn3C)nc2)CCN(c2ccc(C(F)(F)F)cc2C#N)CC1 [Compound 1-229, 1-[2-cyano-4-(trifluoromethyl)phenyl]-4-[6-(1-methyl-1H-pyrrol-2-yl)pyridin-3-yl]-N-{[(2S)-1-methylpyrrolidin-2-yl]methyl}piperidine-4-carboxamide] | 10 to 100 nM
CCOc1ncccc1-c1ncc(C2(C(=O)NCCNC)CCN(c3ccc(C(F)(F)F)cc3C#N)CC2)cc1F [Compound 1-311, 1-[2-cyano-4-(trifluoromethyl)phenyl]-4-{2′-ethoxy-3-fluoro-[2,3′-bipyridin]-5-yl}-N-[2-(methylamino)ethyl]piperidine-4-carboxamide] | < 10 nM
COc1ncccc1-c1ccc(C2(C(=O)N[C@@H](C)CN(C)C)CCN(c3ccc(C(F)(F)F)cc3F)CC2)cn1 [Compound 1-295, N-[(2S)-1-(dimethylamino)propan-2-yl]-1-[2-fluoro-4-(trifluoromethyl)phenyl]-4-{2′-methoxy-[2,3′-bipyridin]-5-yl}piperidine-4-carboxamide] | < 10 nM
CCOc1ncccc1-c1ccc(C2(C(=O)NC[C@H](CO)N(C)C)CCN(c3ccc(C(F)(F)F)cc3C#N)CC2)cn1 [Compound 1-45, 1-[2-cyano-4-(trifluoromethyl)phenyl]-N-[(2R)-2-(dimethylamino)-3-hydroxypropyl]-4-{2′-ethoxy-[2,3′-bipyridin]-5-yl}piperidine-4-carboxamide] | < 10 nM
CN1CC(F)(F)C[C@H]1CNC(=O)C1(c2ccc(-c3cccn3C)nc2)CCN(c2ccc(C(F)(F)F)cc2C#N)CC1 [Compound 1-279, 1-[2-cyano-4-(trifluoromethyl)phenyl]-N-{[(2S)-4,4-difluoro-1-methylpyrrolidin-2-yl]methyl}-4-[6-(1-methyl-1H-pyrrol-2-yl)pyridin-3-yl]piperidine-4-carboxamide] | 100 to 1000 nM
COc1ccc(F)cc1-c1ncc(C2(C(=O)N[C@H]3CCN(C)C3)CCN(c3ccc(C(F)(F)F)cc3C#N)CC2)cc1F [Compound 1-195, 1-[2-cyano-4-(trifluoromethyl)phenyl]-4-[5-fluoro-6-(5-fluoro-2-methoxyphenyl)pyridin-3-yl]-N-[(3S)-1-methylpyrrolidin-3-yl]piperidine-4-carboxamide] | < 10 nM
CN1CC[C@H](NC(=O)C2(c3cnc(-c4cccn4C)c(F)c3)CCN(c3ccc(C(F)(F)F)cc3Cl)CC2)C1 [Compound 1-162, 1-[2-chloro-4-(trifluoromethyl)phenyl]-4-[5-fluoro-6-(1-methyl-1H-pyrrol-2-yl)pyridin-3-yl]-N-[(3S)-1-methylpyrrolidin-3-yl]piperidine-4-carboxamide] | < 10 nM
COc1ccccc1-c1ncc(C2(NC(=O)N[C@@H]3CCN(C)C3)CCN(c3ccc(C(F)(F)F)cc3C#N)CC2)cc1F [Compound 2-52, 1-{1-[2-cyano-4-(trifluoromethyl)phenyl]-4-[5-fluoro-6-(2-methoxyphenyl)pyridin-3-yl]piperidin-4-yl}-3-[(3R)-1-methylpyrrolidin-3-yl]urea] | < 10 nM
CN(C)CCNC(=O)C1(c2ccc(-c3cccn3C)nc2)CCN(c2ccc(C(F)(F)F)cc2F)CC1 [Compound 1-276, N-[2-(dimethylamino)ethyl]-1-[2-fluoro-4-(trifluoromethyl)phenyl]-4-[6-(1-methyl-1H-pyrrol-2-yl)pyridin-3-yl]piperidine-4-carboxamide] | < 10 nM
CNCCNC(=O)C1(c2cnc(-c3ccccc3OC)c(F)c2)CCN(c2ccc(C(F)(F)F)cc2C#N)CC1 [Compound 1-196, 1-[2-cyano-4-(trifluoromethyl)phenyl]-4-[5-fluoro-6-(2-methoxyphenyl)pyridin-3-yl]-N-[2-(methylamino)ethyl]piperidine-4-carboxamide] | < 10 nM
COc1cccnc1-c1ccc(C2(C(=O)N[C@H]3CCN(C)C3)CCN(c3ccc(C(F)(F)F)cc3C#N)CC2)cn1 [Compound 1-178, 1-[2-cyano-4-(trifluoromethyl)phenyl]-4-{3′-methoxy-[2,2′-bipyridin]-5-yl}-N-[(3S)-1-methylpyrrolidin-3-yl]piperidine-4-carboxamide] | 10 to 100 nM
CCOc1ccccc1-c1ncc(C2(C(=O)NCCN(C)C)CCN(c3ccc(C(F)(F)F)cc3F)CC2)cc1F [Compound 1-289, N-[2-(dimethylamino)ethyl]-4-[6-(2-ethoxyphenyl)-5-fluoropyridin-3-yl]-1-[2-fluoro-4-(trifluoromethyl)phenyl]piperidine-4-carboxamide] | < 10 nM
CN1CC[C@H](C(=O)NC2(c3ccc(-c4cccn4C)nc3)CCN(c3ccc(C(F)(F)F)cc3C#N)CC2)C1 [Compound 2-46, (3S)—N-{1-[2-cyano-4-(trifluoromethyl)phenyl]-4-[6-(1-methyl-1H-pyrrol-2-yl)pyridin-3-yl]piperidin-4-yl}-1-methylpyrrolidine-3-carboxamide] | < 10 nM
COc1ncccc1-c1ccc(C2(C(=O)N[C@H]3CCN(C)C3)CCN(c3ccc(C(F)(F)F)cc3C#N)CC2)cn1 [Compound 1-179, 1-[2-cyano-4-(trifluoromethyl)phenyl]-4-{2′-methoxy-[2,3′-bipyridin]-5-yl}-N-[(3S)-1-methylpyrrolidin-3-yl]piperidine-4-carboxamide] | < 10 nM
COc1ccc(F)cc1-c1ncc(C2(C(=O)N[C@H]3CCN(C)C3)CCN(c3ccc(C(F)(F)F)cc3F)CC2)cc1F [Compound 1-204, 1-[2-fluoro-4-(trifluoromethyl)phenyl]-4-[5-fluoro-6-(5-fluoro-2-methoxyphenyl)pyridin-3-yl]-N-[(3S)-1-methylpyrrolidin-3-yl]piperidine-4-carboxamide] | < 10 nM
CCOc1ncccc1-c1ccc(C2(C(=O)N[C@H]3CCN(C)C3)CCN(c3ccc(C(F)F)cc3C#N)CC2)cn1 [Compound 1-37, 1-[2-cyano-4-(difluoromethyl)phenyl]-4-{2′-ethoxy-[2,3′-bipyridin]-5-yl}-N-[(3S)-1-methylpyrrolidin-3-yl]piperidine-4-carboxamide] | < 10 nM
